Measured values as given in patent US20160229835A1, “NOVEL PYRIDYLOXYACETYL TETRAHYDROISOQUINOLINE COMPOUNDS USEFUL AS NAMPT INHIBITORS” (ELI LILLY AND COMPANY, priority 2013, published 2016).

What was measured:
NAMPT = NAMPT (Homo sapiens, UniProt P43490); experiment: NAMPT Biochemical Assay (NMN formation by LC-MS); details: relative IC50; 1.5 nM NAMPT, 2 hours at room temperature; read-out: IC50 (inhibition of NAMPT catalytic activity, NMN formation)
Experimental: The purpose of this assay is to measure the ability of a compound to inhibit NAMPT catalytic activity. Reaction mixtures (25 μL) containing 50 mM HEPES at pH 7.5, 50 mM NaCl, 1 mM DTT, 0.005% TRITON® X-100, 1.5 μM phosphoribosyl-pyrophosphate, 0.5 μM nicotinamide (NAM), 1.5 nM NAMPT, 2.5 mM ATP, 1.25 mM MgCl2, 4% (v/v) DMSO and compounds after a ten-point series dilution from either 1 μM to 50 pM or 0.1 μM to 5 pM (final) are prepared. The reaction mixtures are incubated at room temperature for 2 hours. The reaction is terminated by the addition of ACN (25 μL) containing nicotinamide mononucleotide-d4 (NMN-d4) as an internal standard (final concentration: 5 μM). […] A positive control group (enzyme and DMSO, but no compound) is used to measure minimum inhibition (0%) of NMN formation. Percent inhibition of compound treated groups is calculated relative to the minimum inhibition group. The relative IC50 for each compound is calculated from a dose response study and is the concentration necessary to achieve 50% inhibition at this time point using the above disclosed ranges of 1 μM to 50 pM (final). The data generated from the dose-response studies is fit to a four-parameter logistic equation using ACTIVITYBASE 4.0 Equation 205.

[1] = system: HCC1937 (breast cancer) cells; experiment: Cell Viability Assay, HCC1937; assay type: cell-based; details: Homo sapiens, 72 hours
Experimental: (§1) The purpose of this assay is to measure the ability of a compound to reduce viability of different cancer cells dependent on the NAMPT-mediated NAD^+ formation in vitro. HCC1937 (breast cancer) cells are cultured in RPMI-1640 supplemented with 10% FBS. Calu-6 (lung cancer) cells and MCF-7 (breast cancer) cells are cultured in Minimum Essential Medium (MEM) (Gibco11095) supplemented with 1 mM sodium pyruvate (Gibco 11360), 1% Non-Essential Amino Acids Solution (100×; Gibco 11140) and 10% FBS. NCI-H1155 (lung cancer) cells are cultured in Dulbecco's Modified Eagle Medium (DMEM) (Gibco 11965) with 10% FBS. […] Cell viability is analyzed by using an assay kit (CYTOTOX-GLO™ Cytotoxicity Assay kit, Promega) according to the manufacturer's instructions as follows. […] Luminescence is measured using a Wallac Victor3 V 1420 Multilabel Counter (Perkin Elmer), referred to as dead cell luminescence. […] After the plate is incubated at room temperature for 15 minutes, luminescence is measured using the plate reader, referred to as total luminescence. Viable cell luminescence (CPS) is calculated by subtracting the dead cell luminescence from the total luminescence Inhibition of cell viability is calculated based on the equation as follows:
(§2) Inhibition (%)=(CPSnegative−CPSsample)/(CPSnegative−CPSpositive)*100 where CPS is the luminescence of viable cells.

[2] = system: NCI-H1155 (lung cancer) cells; experiment: Cell Viability Assay, NCI-H1155; assay type: cell-based; details: Homo sapiens, 72 hours
Experimental: as §1, §2

[3] = system: MCF-7 (breast cancer) cells; experiment: Cell Viability Assay, MCF-7; assay type: cell-based; details: Homo sapiens, MCF7, 72 hours
Experimental: as §1, §2

Chain of NAMPT (P43490 whole entry): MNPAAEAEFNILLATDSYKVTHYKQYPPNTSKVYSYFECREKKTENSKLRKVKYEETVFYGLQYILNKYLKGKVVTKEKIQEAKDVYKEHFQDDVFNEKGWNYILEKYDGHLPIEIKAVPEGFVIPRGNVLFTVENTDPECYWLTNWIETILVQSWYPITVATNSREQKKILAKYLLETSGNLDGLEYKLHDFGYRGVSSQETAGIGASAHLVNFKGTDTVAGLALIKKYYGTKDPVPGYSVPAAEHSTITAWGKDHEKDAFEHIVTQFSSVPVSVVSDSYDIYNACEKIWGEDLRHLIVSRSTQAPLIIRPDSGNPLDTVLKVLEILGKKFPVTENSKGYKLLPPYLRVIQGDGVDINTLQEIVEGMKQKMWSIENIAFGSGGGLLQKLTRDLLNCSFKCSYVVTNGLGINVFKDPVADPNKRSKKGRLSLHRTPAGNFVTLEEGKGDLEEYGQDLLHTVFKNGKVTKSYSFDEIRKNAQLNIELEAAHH

**Q.** For `CC(C)(O)CS(=O)(=O)Nc1ccc2c(c1)CCN(C(=O)COc1cccnc1)C2` [Example 1, 2-Hydroxy-2-methyl-N-[2-[2-(3-pyridyloxy)acetyl]-3,4-dihydro-1H-isoquinolin-6-yl]propane-1-sulfonamide], which IC50 (NAMPT) is on record?
**A.** 3.1 nM

**Q.** And the IC50 [1]?
**A.** 333 ± 32 nM

**Q.** And the IC50 [2]?
**A.** 18 ± 3 nM

**Q.** What about the IC50 [3] of the same molecule?
**A.** 389 ± 283 nM

**Q.** Which results are given for `COCCS(=O)(=O)Nc1ccc2c(c1)CCN(C(=O)COc1cccnc1)C2` [Example 2, 2-Methoxy-N-[2-[2-(3-pyridyloxy)acetyl]-3,4-dihydro-1H-isoquinolin-6-yl]ethanesulfonamide]?
**A.** IC50 (NAMPT): 1.1 nM; IC50 [1]: 1040 ± 664 nM; IC50 [2]: 37 ± 16 nM; IC50 [3]: 352 ± 252 nM
